Reference: ChEMBL document CHEMBL5678818, “Discovery of potent SOS1 inhibitors that block RAS activation via disruption of the RAS-SOS1 interaction” (Proc Natl Acad Sci U S A, 2019)

How the values were obtained:
[1] = molecular target: Wee1-like protein kinase (Homo sapiens) (UniProt P30291); test: Inhibition of WEE1 (unknown origin) assessed as residual activity at 1000 nM by KINOMEscan analysis relative to control
[2] = molecular target: Maternal embryonic leucine zipper kinase (Homo sapiens) (UniProt Q14680); test: Inhibition of MELK (unknown origin) assessed as residual activity at 1000 nM by KINOMEscan analysis relative to control
[3] = molecular target: Insulin receptor (Homo sapiens) (UniProt P06213); test: Inhibition of INSR (unknown origin) assessed as residual activity at 1000 nM by KINOMEscan analysis relative to control
[4] = molecular target: T1, 3-phosphoinositide-dependent protein kinase 1 (Homo sapiens) (UniProt O15530); test: Inhibition of PDPK1 (unknown origin) assessed as residual activity at 1000 nM by KINOMEscan analysis relative to control
T1 sequence (whole entry): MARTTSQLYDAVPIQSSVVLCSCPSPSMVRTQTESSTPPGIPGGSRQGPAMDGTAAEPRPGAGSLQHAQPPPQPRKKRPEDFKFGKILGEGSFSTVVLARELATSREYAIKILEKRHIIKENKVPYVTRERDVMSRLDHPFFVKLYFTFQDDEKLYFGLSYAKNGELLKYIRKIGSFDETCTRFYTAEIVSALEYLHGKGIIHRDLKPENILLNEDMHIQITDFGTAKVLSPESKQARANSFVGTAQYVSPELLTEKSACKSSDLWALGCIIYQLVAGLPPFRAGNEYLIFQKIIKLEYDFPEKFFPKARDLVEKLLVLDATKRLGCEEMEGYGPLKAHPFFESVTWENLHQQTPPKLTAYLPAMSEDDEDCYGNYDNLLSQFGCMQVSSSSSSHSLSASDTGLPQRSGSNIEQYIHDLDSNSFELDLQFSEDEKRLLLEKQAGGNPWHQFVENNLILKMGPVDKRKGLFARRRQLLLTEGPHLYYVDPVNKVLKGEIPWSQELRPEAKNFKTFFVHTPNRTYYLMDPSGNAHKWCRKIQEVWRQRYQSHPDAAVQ

[5] = molecular target: Tyrosine-protein kinase CSK (Homo sapiens) (UniProt P41240); test: Inhibition of CSK (unknown origin) assessed as residual activity at 1000 nM by KINOMEscan analysis relative to control
[6] = molecular target: Focal adhesion kinase 1 (Homo sapiens) (UniProt Q05397); test: Inhibition of FAK (unknown origin) assessed as residual activity at 1000 nM by KINOMEscan analysis relative to control
[7] = molecular target: T2, Ephrin type-A receptor 3 (Homo sapiens) (UniProt P29320); test: Inhibition of EPHA3 (unknown origin) assessed as residual activity at 1000 nM by KINOMEscan analysis relative to control
T2 sequence (whole entry): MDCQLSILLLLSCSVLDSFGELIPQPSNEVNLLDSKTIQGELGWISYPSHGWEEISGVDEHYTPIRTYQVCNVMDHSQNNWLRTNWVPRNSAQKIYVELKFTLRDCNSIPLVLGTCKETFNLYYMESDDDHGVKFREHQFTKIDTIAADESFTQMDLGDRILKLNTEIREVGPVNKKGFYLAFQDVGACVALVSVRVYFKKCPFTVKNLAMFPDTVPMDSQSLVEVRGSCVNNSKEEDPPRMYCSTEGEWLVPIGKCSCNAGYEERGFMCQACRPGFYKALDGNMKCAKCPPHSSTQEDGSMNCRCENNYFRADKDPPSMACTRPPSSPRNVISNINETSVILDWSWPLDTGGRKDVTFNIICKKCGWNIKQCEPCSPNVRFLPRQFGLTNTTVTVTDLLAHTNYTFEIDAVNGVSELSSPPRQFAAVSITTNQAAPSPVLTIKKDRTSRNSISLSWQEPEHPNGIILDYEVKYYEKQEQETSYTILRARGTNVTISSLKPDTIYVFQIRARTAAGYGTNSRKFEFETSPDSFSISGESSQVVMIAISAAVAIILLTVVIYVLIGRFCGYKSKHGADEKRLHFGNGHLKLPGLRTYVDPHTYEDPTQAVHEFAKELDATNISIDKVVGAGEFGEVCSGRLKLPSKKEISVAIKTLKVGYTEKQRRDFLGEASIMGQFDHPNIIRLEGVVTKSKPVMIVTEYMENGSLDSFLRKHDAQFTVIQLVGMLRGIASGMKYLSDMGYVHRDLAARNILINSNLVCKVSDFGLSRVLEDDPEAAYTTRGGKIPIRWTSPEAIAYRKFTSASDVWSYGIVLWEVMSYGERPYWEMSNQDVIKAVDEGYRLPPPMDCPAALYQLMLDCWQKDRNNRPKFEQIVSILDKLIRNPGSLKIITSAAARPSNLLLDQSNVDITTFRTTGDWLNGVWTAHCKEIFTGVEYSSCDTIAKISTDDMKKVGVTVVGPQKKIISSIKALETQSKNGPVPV

[8] = molecular target: Leucine-rich repeat serine/threonine-protein kinase 2 (Homo sapiens) (UniProt Q5S007); test: Inhibition of LRRK2 (unknown origin) assessed as residual activity at 1000 nM by KINOMEscan analysis relative to control
[9] = molecular target: MAP kinase-interacting serine/threonine-protein kinase 1 (Homo sapiens) (UniProt Q9BUB5); test: Inhibition of MKNK1 (unknown origin) assessed as residual activity at 1000 nM by KINOMEscan analysis relative to control
[10] = molecular target: T3, Mitogen-activated protein kinase kinase kinase 3 (Homo sapiens) (UniProt Q99759); test: Inhibition of MAP3K3 (unknown origin) assessed as residual activity at 1000 nM by KINOMEscan analysis relative to control
T3 sequence (whole entry): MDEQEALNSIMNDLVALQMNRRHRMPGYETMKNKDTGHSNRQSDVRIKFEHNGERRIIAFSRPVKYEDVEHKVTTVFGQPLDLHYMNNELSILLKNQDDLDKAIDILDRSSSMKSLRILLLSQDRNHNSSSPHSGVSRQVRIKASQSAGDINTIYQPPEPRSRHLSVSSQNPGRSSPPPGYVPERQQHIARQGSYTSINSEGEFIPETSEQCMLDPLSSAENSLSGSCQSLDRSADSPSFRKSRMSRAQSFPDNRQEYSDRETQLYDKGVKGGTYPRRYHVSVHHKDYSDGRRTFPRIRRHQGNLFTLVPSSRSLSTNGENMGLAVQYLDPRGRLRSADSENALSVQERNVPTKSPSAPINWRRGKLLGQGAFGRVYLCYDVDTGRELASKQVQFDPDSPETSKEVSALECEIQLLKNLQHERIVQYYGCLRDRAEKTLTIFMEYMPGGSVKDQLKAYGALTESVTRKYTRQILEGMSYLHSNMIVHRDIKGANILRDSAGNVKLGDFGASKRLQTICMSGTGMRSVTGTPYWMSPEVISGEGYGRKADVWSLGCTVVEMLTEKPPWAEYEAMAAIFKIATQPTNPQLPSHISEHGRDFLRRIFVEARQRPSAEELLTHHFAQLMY

[11] = molecular target: SRSF protein kinase 1 (Homo sapiens) (UniProt Q96SB4); test: Inhibition of SRPK1 (unknown origin) assessed as residual activity at 1000 nM by KINOMEscan analysis relative to control
SRSF protein kinase 1 (Homo sapiens), sequence (Q96SB4 whole entry): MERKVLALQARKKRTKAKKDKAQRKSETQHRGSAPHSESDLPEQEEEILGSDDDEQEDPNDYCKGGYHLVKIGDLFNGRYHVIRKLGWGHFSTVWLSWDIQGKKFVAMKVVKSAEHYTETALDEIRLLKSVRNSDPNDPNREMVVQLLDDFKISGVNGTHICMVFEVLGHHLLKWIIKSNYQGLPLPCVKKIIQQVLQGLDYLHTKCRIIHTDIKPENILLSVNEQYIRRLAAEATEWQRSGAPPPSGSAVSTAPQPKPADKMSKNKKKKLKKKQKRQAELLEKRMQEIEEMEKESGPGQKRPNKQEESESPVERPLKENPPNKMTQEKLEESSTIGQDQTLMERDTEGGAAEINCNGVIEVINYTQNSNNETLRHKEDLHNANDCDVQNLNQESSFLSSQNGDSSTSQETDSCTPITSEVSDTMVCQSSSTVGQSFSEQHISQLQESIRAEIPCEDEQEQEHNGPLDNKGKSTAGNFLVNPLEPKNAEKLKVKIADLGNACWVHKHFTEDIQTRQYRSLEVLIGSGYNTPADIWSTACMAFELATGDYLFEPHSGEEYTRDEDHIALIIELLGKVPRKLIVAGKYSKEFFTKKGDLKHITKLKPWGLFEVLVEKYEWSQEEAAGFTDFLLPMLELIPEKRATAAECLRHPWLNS

MAP kinase-interacting serine/threonine-protein kinase 1 (Homo sapiens), sequence (Q9BUB5 whole entry, looked up): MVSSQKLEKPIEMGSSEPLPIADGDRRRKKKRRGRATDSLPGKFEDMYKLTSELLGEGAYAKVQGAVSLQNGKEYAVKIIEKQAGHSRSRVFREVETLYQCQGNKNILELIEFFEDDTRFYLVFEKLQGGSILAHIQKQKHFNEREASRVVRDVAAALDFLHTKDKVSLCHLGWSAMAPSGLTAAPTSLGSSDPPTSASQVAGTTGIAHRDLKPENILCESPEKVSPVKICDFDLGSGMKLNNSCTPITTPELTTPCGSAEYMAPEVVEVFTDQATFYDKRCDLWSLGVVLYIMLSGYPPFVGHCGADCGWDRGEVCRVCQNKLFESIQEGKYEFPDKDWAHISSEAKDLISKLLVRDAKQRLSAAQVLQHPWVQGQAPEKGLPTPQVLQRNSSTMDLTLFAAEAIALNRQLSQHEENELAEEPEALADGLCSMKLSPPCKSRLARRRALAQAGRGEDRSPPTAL
Focal adhesion kinase 1 (Homo sapiens), sequence (Q05397 2-1052 limits assumed): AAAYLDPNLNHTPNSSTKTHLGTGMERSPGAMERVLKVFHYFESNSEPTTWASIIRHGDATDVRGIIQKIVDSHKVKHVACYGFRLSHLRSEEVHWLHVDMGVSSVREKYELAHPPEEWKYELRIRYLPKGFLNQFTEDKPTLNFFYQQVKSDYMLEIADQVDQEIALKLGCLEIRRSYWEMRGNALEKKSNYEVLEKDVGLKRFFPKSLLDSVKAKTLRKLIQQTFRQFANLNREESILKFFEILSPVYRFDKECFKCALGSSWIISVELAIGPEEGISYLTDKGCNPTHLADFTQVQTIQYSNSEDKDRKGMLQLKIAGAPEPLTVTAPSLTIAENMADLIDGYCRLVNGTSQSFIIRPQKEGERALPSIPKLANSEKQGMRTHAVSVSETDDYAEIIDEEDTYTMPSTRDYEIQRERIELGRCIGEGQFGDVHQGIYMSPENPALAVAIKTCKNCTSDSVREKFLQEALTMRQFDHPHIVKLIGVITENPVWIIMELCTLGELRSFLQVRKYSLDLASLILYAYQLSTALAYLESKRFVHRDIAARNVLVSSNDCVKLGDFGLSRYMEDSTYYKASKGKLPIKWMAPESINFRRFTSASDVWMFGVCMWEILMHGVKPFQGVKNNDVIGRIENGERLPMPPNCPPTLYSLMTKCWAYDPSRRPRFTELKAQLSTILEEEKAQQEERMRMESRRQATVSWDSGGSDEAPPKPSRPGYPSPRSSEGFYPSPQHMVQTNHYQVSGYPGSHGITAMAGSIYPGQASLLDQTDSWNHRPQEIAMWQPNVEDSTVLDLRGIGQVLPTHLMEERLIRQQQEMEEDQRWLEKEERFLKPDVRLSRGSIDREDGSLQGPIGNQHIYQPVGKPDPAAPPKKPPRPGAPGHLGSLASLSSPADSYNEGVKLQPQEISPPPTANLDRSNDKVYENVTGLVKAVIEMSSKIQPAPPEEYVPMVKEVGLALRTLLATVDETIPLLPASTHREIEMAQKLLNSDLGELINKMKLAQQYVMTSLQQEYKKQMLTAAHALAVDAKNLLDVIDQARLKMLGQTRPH
Wee1-like protein kinase (Homo sapiens), sequence (P30291 whole entry, looked up): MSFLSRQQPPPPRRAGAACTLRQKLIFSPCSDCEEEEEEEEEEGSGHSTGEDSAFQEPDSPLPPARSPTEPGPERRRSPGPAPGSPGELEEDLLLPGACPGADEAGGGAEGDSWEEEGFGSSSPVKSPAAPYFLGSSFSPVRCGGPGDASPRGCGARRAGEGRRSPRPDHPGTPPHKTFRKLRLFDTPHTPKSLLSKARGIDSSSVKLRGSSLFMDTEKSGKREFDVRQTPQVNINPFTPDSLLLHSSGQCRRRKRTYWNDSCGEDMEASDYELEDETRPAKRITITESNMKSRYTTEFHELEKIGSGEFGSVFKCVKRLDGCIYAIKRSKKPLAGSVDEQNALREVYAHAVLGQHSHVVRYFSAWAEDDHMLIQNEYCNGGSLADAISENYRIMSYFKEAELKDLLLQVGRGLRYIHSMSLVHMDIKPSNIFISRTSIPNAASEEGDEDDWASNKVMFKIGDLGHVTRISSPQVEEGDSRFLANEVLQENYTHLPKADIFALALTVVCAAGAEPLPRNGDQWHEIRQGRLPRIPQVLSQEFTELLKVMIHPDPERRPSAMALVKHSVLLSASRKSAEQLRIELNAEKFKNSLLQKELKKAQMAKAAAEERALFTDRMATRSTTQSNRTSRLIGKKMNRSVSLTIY
Insulin receptor (Homo sapiens), sequence (P06213 28-758 limits assumed): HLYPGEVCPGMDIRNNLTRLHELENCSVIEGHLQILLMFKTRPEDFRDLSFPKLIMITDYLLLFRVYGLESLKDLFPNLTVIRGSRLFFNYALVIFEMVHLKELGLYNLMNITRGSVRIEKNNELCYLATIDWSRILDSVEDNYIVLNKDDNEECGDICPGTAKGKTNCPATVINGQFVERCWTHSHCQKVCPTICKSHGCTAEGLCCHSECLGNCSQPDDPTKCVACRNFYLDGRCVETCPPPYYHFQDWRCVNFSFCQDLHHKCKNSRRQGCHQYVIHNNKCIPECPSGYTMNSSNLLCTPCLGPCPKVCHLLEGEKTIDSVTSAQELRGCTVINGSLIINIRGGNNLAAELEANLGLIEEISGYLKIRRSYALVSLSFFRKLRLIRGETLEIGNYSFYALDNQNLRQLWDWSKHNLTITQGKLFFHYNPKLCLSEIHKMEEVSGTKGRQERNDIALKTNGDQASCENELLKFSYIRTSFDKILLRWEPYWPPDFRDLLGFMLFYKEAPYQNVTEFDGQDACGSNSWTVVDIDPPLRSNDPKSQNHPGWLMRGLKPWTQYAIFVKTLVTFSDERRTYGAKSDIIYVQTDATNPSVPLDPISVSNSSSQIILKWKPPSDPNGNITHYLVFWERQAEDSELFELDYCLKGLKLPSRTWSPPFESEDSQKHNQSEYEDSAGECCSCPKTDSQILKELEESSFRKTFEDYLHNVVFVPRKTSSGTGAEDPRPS
Insulin receptor (Homo sapiens), sequence (P06213 763-1382 limits assumed): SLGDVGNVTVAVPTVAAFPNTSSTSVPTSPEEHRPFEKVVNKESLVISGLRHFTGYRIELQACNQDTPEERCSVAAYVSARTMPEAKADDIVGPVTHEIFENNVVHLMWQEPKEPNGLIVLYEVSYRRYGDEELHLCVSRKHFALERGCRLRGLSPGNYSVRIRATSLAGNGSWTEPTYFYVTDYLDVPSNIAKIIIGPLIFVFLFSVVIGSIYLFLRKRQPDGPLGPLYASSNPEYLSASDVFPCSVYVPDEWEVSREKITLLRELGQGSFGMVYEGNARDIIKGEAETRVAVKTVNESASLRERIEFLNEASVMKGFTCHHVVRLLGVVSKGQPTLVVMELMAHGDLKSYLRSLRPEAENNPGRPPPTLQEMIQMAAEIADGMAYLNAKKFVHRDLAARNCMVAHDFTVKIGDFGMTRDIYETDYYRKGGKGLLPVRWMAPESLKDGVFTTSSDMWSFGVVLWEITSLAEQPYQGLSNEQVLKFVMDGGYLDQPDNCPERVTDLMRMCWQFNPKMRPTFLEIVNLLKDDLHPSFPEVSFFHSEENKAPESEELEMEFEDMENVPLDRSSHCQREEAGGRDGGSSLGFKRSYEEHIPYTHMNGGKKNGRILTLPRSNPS
Tyrosine-protein kinase CSK (Homo sapiens), sequence (P41240 2-450 limits assumed): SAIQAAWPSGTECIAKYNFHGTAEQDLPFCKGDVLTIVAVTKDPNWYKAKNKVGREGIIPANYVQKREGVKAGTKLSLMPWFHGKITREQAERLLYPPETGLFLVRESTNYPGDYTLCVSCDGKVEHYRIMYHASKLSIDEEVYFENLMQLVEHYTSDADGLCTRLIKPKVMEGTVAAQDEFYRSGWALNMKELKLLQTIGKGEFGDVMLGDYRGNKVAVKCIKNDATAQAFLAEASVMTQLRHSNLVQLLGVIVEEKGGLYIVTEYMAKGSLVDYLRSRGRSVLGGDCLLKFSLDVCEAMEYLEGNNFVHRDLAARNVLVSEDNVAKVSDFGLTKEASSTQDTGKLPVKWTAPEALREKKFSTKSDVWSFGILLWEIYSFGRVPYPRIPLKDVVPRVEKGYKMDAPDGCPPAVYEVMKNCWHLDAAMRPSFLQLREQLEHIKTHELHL

SMILES	Activity [1]	Activity [2]	Activity [3]	Activity [4]	Activity [5]	Activity [6]	Activity [7]	Activity [8]	Activity [9]	Activity [10]	Activity [11]
COc1cc2nc(C)nc(N[C@H](C)c3cccc(-c4cn[nH]c4)c3)c2cc1OC	84%	91%	80%	97%	93%	95%	90%	94%	100%	95%	77%
COc1cc2ncnc(N[C@H](C)c3cccc4ccccc34)c2cc1OC	100%	71%	82%	88%	87%	100%	48%	99%	56%	100%	98%
